Laboratory results published in PubChem BioAssay (NCI).
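Growth conditions: 96-well plates. Treatment: test compound, 48 hours, 5 concentrations. Analysis: linear interpolation between bracketing concentrations; unreached endpoints set to highest concentration. GI50: concentration for 50% inhibition of growth. At the TGI there is no net growth.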

Columns and labels:
Test in all cases: NCI-60 cell line screen, 48 h
[1] = system: T-47D breast
[2] = system: 786-0 renal
[3] = system: U251 CNS
[4] = system: TK-10 renal
[5] = system: PC-3 prostate
[6] = system: UACC-62 melanoma
[7] = system: LOX IMVI melanoma
[8] = system: RPMI-8226 leukemia
[9] = system: CCRF-CEM leukemia
[10] = system: OVCAR-3 ovarian

Structure (SMILES) | TGI [1] [µM] | TGI [2] [µM] | TGI [3] [µM] | TGI [4] [µM] | TGI [5] [µM] | TGI [6] [µM] | TGI [7] [µM] | TGI [8] [µM] | TGI [9] [µM] | TGI [10] [µM] | GI50 [2] [µM] | GI50 [3] [µM] | GI50 [10] [µM] | GI50 [4] [µM] | GI50 [6] [µM] | GI50 [7] [µM] | GI50 [8] [µM] | GI50 [9] [µM] | GI50 [1] [µM] | GI50 [5] [µM]
CCCCCC/C=C\CCCCCCCCCc1cccc(OC)c1O | > 100 | > 100 | > 100 | > 100 | > 100 | > 100 | > 100 | > 100 | > 100 |  |  |  |  |  |  |  |  |  |  | 
CC(C)(C)CC(C)(C)c1cc2c(O)c(c1)Cc1cc(C(C)(C)CC(C)(C)C)cc(c1O)Cc1cc(C(C)(C)CC(C)(C)C)cc(c1O)Cc1cc(C(C)(C)CC(C)(C)C)cc(c1O)Cc1cc(C(C)(C)CC(C)(C)C)cc(c1O)Cc1cc(C(C)(C)CC(C)(C)C)cc(c1O)Cc1cc(C(C)(C)CC(C)(C)C)cc(c1O)Cc1cc(C(C)(C)CC(C)(C)C)cc(c1O)C2 |  | > 100 | > 100 | > 100 |  | > 100 |  | > 100 | > 100 | > 100 |  |  |  |  |  |  |  |  |  | 
CC(C)CCCC(C)[C@H]1CCC2C3CC=C4C[C@@H](OC(=O)CC(CC(=O)[O-])C(=O)[O-])CC[C@]4(C)C3CC[C@@]21C.N.N.[Pt+4] (some centres undefined) |  | > 100 | > 100 | > 100 |  | > 100 | > 100 | > 100 | > 100 | > 100 | > 100 | > 100 | > 100 | > 100 | > 100 | > 100 | > 100 | > 100 |  | 
O=C(/C=C/c1ccco1)N1CCN(Cc2ccccc2)CC1 |  | > 100 | > 100 | > 100 |  | > 100 | > 100 | > 100 | > 100 | > 100 |  |  |  |  |  |  |  |  |  | 
CCOc1ccc2c(c1)[n+]([O-])c(-c1ccc([N+](=O)[O-])cc1)c(N)[n+]2[O-] |  | > 100 | > 100 |  |  |  |  |  | > 100 | > 100 |  |  |  |  |  |  |  |  |  | 
Cn1c(=S)c2[nH]c(SCc3cccnc3)nc2n(C)c1=O | > 100 | > 100 | > 100 | > 100 | > 100 | > 100 | > 100 | > 100 |  | > 100 |  |  |  |  |  |  |  |  |  | 
COc1cc2ccnc(-c3n[nH]c4cc(OC)c(OC)cc34)c2cc1OC |  | > 100 | > 100 | > 100 |  | > 100 | > 100 | > 100 | > 100 | > 100 |  |  |  |  |  |  |  |  |  | 
COc1ccc(-c2cncn2-c2ccc(-c3nc4cc(OC)c(OC)c(OC)c4s3)cc2)cc1N | > 100 | > 100 | > 100 | > 100 | > 100 | > 100 | > 100 |  | > 100 | > 100 | 5.73 | 6 | 5.18 | 4.16 | 9.04 | 4.75 |  | 3.41 | 3.02 | 2.59
COc1ccc(C#CC2=C(Br)C(=O)OC2)cc1 |  | > 50 | 6.48 | 16.2 | 29.8 | 12.8 | 14 | > 50 | > 50 | 7 | 21.5 | 1.75 | 1.61 | 1.94 | 6.48 | 6.42 | 2.14 | 3.98 |  | 11.6
CC(C)(C)c1cc(C#N)c2c(c1)C(=O)OC2(c1ccccc1)c1ccccc1C#N (centres undefined) |  | > 100 | > 100 | > 100 |  | > 100 | > 100 |  | > 100 | > 100 |  |  |  |  |  |  |  |  |  | 
